Test results from ChEMBL document CHEMBL5154781, “Discovery of Novel Sertraline Derivatives as Potent Anti-Cryptococcus Agents” (J Med Chem, 2022).
The source made the active and inactive calls. The calls are words filed in the database; no cut-off is given here.

Columns and labels:
Cryptococcus neoformans [1] = test: microbe, parasite or virus in culture; format: functional, organism-based; conditions: H99, 72 h
Description: Anti-cryptococcal activity against Cryptococcus neoformans H99 assessed as inhibition of fungal growth incubated for 72 hrs by microdilution method

Cryptococcus neoformans [2] = test: Anti-cryptococcal activity against Cryptococcus neoformans H99 assessed as inhibition of fungal growth at 4 to 8 ug/ml measured for 3 to 48 hrs by time-growth curve assay; format: functional, organism-based; conditions: dose 4-8 µg/ml, time 3-48 hrs
Cryptococcus neoformans [3] = test: Inhibition of biofilm formation in Cryptococcus neoformans H99 at 2 ug/ml incubated for 24 hrs by XTT reduction assay; format: functional
Cryptococcus neoformans [4] = test: Inhibition of biofilm formation in Cryptococcus neoformans H99 at 0.5 to 8 ug/ml incubated for 24 hrs by XTT reduction assay; format: functional, organism-based; conditions: dose 0.5-8 µg/ml, DDE = dose-dependent effect
Cryptococcus neoformans [5] = test: Anti-cryptococcal activity against Cryptococcus neoformans H99 assessed as inhibition of fungal growth at 8 ug/ml measured after 72 hrs by time-growth curve assay; format: functional; set-up: scale not given: the % may be the effect or the level left; conditions: dose 8 µg/ml
Cryptococcus neoformans [6] = test: Anti-cryptococcal activity against Cryptococcus neoformans H99 assessed as inhibition of fungal growth at 1 ug/ml measured after 72 hrs by time-growth curve assay; format: functional, organism-based; conditions: dose 1.0 µg/ml
Cryptococcus neoformans [7] = test: Fungicidal activity against Cryptococcus neoformans H99 assessed as fungal growth inhibition incubated upto 72 hrs by time-fungicidal curve assay; format: functional
[Candida] auris [8] = microbe, parasite or virus in culture; format: functional, organism-based; conditions: Candidozyma auris, 0030, 48 h
Description: Antifungal activity against Candida auris 0030 assessed as inhibition of fungal growth incubated for 48 hrs by microdilution method

Candida albicans [9] = test: microbe, parasite or virus in culture; format: functional, organism-based; conditions: SC5314, 48 h
Description: Antifungal activity against Candida albicans SC5314 assessed as inhibition of fungal growth incubated for 48 hrs by microdilution method

Candida albicans [10] = test: microbe, parasite or virus in culture; format: functional, organism-based; conditions: Candida albicans, 904, 48 h
Description: Antifungal activity against Candida albicans 904 assessed as inhibition of fungal growth incubated for 48 hrs by microdilution method

Candida albicans [11] = test: microbe, parasite or virus in culture; format: functional, organism-based; conditions: Candida albicans, 0304103, 48 h
Description: Antifungal activity against Candida albicans 0304103 assessed as inhibition of fungal growth incubated for 48 hrs by microdilution method

Candida tropicalis = test: microbe, parasite or virus in culture; format: functional, organism-based; conditions: Candida tropicalis, 10186, 48 h
Description: Antifungal activity against Candida tropicalis 10186 assessed as inhibition of fungal growth incubated for 48 hrs by microdilution method

Nakaseomyces glabratus [12] = test: microbe, parasite or virus in culture; format: functional, organism-based; conditions: Nakaseomyces glabratus, 9073, 48 h
Description: Antifungal activity against Candida glabrata 9073 assessed as inhibition of fungal growth incubated for 48 hrs by microdilution method

Nakaseomyces glabratus [13] = test: microbe, parasite or virus in culture; format: functional, organism-based; conditions: Nakaseomyces glabratus, 9025, 48 h
Description: Antifungal activity against Candida glabrata 9025 assessed as inhibition of fungal growth incubated for 48 hrs by microdilution method

Pichia kudriavzevii = test: microbe, parasite or virus in culture; format: functional, organism-based; conditions: Pichia kudriavzevii, 10153, 48 h
Description: Antifungal activity against Candida krusei 10153 assessed as inhibition of fungal growth incubated for 48 hrs by microdilution method

[Candida] auris [14] = microbe, parasite or virus in culture; format: functional, organism-based; conditions: Candidozyma auris, 0029, 48 h
Description: Antifungal activity against Candida auris 0029 assessed as inhibition of fungal growth incubated for 48 hrs by microdilution method

[Candida] auris [15] = Antifungal activity against Candida auris 15448 assessed as inhibition of fungal growth incubated for 48 hrs by microdilution method; format: functional, organism-based; conditions: Candidozyma auris, 15448, 48 h
Aspergillus fumigatus [16] = test: microbe, parasite or virus in culture; format: functional, organism-based; conditions: Aspergillus fumigatus, 7544, 48 h
Description: Antifungal activity against Aspergillus fumigatus 7544 assessed as inhibition of fungal growth incubated for 48 hrs by microdilution method

Aspergillus fumigatus [17] = test: microbe, parasite or virus in culture; format: functional, organism-based; conditions: 023-2, 48 h
Description: Antifungal activity against Aspergillus fumigatus 023-2 assessed as inhibition of fungal growth incubated for 48 hrs by microdilution method

[18] = Metabolic stability in mouse liver microsomes assessed as half life; format: ADME, Microsome
[19] = Metabolic stability in mouse liver microsomes assessed as clearance; format: ADME, Microsome
[20] = Cytotoxicity against HUVEC cells; conditions: human
[21] = […] in ICR mouse model of Cryptococcal meningitis infected with Cryptococcus neoformans H99 assessed as median survival time at 15 mg/kg, IG administered daily (reference value: 11 day); format: organism-based; conditions: in vivo, po, 264 h
Cryptococcus neoformans [22] = test: Anti-cryptococcal activity against Cryptococcus neoformans H99 assessed as cell membrane damage at 4 ug/ml incubated for 8 hrs by transmission electron microscopy; format: functional, organism-based; conditions: dose 4.0 µg/ml
Cryptococcus neoformans [23] = test: Anti-cryptococcal activity against Cryptococcus neoformans H99 assessed as cell membrane damage at 0.5 to 4 ug/ml incubated for 8 hrs by transmission electron microscopy; format: functional, organism-based; conditions: dose 0.5-4 µg/ml, DDE = dose-dependent effect
Cryptococcus neoformans [24] = test: Anti-cryptococcal activity against Cryptococcus neoformans H99 assessed as efflux of cell contents at 4 ug/ml incubated for 8 hrs by transmission electron microscopy; format: functional, organism-based; conditions: dose 4.0 µg/ml
Cryptococcus neoformans [25] = test: Inhibition of Cryptococcus neoformans H99 delta5,6-desaturase assessed as change in sterol content at 2 ug/ml incubated for 24 hrs by GC-MS analysis; conditions: dose 2.0 µg/ml
Cryptococcus neoformans [26] = test: Inhibition of Cryptococcus neoformans H99 delta5,6-desaturase assessed as decrease in ergosterol level at 1 ug/ml incubated for 24 hrs by GC-MS analysis; conditions: dose 1.0 µg/ml
Cryptococcus neoformans [27] = test: Inhibition of Cryptococcus neoformans H99 delta5,6-desaturase assessed as increase in ergosta-7,22-dien-3-ol levels at 0.125 to 2 ug/ml incubated for 24 hrs by GC-MS analysis; conditions: dose 0.125-2 µg/ml, DDE = dose-dependent effect
Cryptococcus neoformans [28] = test: Inhibition of Cryptococcus neoformans H99 delta5,6-desaturase assessed as blockade of ergosterol biosynthesis pretreated at 3 ug/ml followed by addition of ERG enzymes incubated for 24 hrs in presence of NADPH by GC-MS analysis; conditions: dose 3.0 µg/ml
Cryptococcus neoformans [29] = test: Inhibition of Cryptococcus neoformans H99 delta5,6-desaturase assessed as blockade of ergosterol biosynthesis at 0.5 ug/ml pretreated with ERG enzymes followed by compound addition incubated for 24 hrs in presence of NADPH by GC-MS analysis; conditions: dose 0.5 µg/ml
Candida albicans [30] = test: Antifungal activity against Candida albicans SC3514 assessed as decrease in ergosterol content at 2 ug/ml incubated for 24 hrs in presence of NADPH by GC-MS analysis; format: functional, organism-based; conditions: dose 2.0 µg/ml
Candida albicans [31] = test: Antifungal activity against Candida albicans SC3514 assessed as low level of ergosta-7,22-dien-3-ol at 2 ug/ml incubated for 24 hrs in presence of NADPH by GC-MS analysis; format: functional, organism-based; conditions: dose 2.0 µg/ml
Cryptococcus neoformans [32] = test: Inhibition of Cryptococcus neoformans H99 delta5,6-desaturase assessed as upregulation of ERG1 gene expression at 2 ug/ml incubated for 24 hrs by RT-PCR analysis; conditions: dose 2.0 µg/ml
Cryptococcus neoformans [33] = test: Inhibition of Cryptococcus neoformans H99 delta5,6-desaturase assessed as upregulation of ERG2 gene expression at 2 ug/ml incubated for 24 hrs by RT-PCR analysis; conditions: dose 2.0 µg/ml
Cryptococcus neoformans [34] = test: Inhibition of Cryptococcus neoformans H99 delta5,6-desaturase assessed as upregulation of ERG3 gene expression at 2 ug/ml incubated for 24 hrs by RT-PCR analysis; conditions: dose 2.0 µg/ml
Cryptococcus neoformans [35] = test: Inhibition of Cryptococcus neoformans H99 delta5,6-desaturase assessed as upregulation of ERG4 gene expression at 2 ug/ml incubated for 24 hrs by RT-PCR analysis; conditions: dose 2.0 µg/ml
Cryptococcus neoformans [36] = test: Inhibition of Cryptococcus neoformans H99 delta5,6-desaturase assessed as upregulation of ERG5 gene expression at 2 ug/ml incubated for 24 hrs by RT-PCR analysis; conditions: dose 2.0 µg/ml
Cryptococcus neoformans [37] = test: Inhibition of Cryptococcus neoformans H99 delta5,6-desaturase assessed as upregulation of ERG11 gene expression at 2 ug/ml incubated for 24 hrs by RT-PCR analysis; conditions: dose 2.0 µg/ml
Cryptococcus neoformans [38] = test: Inhibition of Cryptococcus neoformans H99 delta5,6-desaturase assessed as upregulation of ERG24 gene expression at 2 ug/ml incubated for 24 hrs by RT-PCR analysis; conditions: dose 2.0 µg/ml
Cryptococcus neoformans [39] = test: Inhibition of Cryptococcus neoformans H99 delta5,6-desaturase assessed as upregulation of ERG3 under stress condition at 0.25 to 1 ug/ml incubated for 24 hrs by RT-PCR analysis; conditions: dose 0.25-1 µg/ml, DDE = dose-dependent effect
Cryptococcus neoformans [40] = test: Inhibition of Cryptococcus neoformans H99 delta5,6-desaturase assessed as upregulation of ERG11 at 0.25 to 1 ug/ml incubated for 24 hrs by RT-PCR analysis; conditions: dose 0.25-1 µg/ml, DDE = dose-dependent effect
Candida albicans [41] = test: Upregulation of ERG3 in Candida albicans SC3514 at 0.5 ug/ml incubated for 24 hrs by RT-PCR analysis; format: functional; conditions: dose 0.5 µg/ml
Candida albicans [42] = test: Upregulation of ERG11 in Candida albicans SC3514 at 0.5 ug/ml incubated for 24 hrs by RT-PCR analysis; format: functional; conditions: dose 0.5 µg/ml
[43] = microbe, parasite or virus in culture; format: functional; conditions: Cryptococcus; time 72 hrs
Description: Anti-cryptococcal activity against Cryptococcus assessed as inhibition of fungal growth incubated for 72 hrs by microdilution method

Cryptococcus = test: Fungicidal activity against Cryptococcus assessed as ratio of MFC to MIC; format: functional

CNC1CCC(c2ccc(Cl)c(Cl)c2)c2sccc21.Cl (stereo not given) showed an IC50 (Cryptococcus neoformans [1]) of 8 µg/mL.

In the case of Cl.Clc1ccc(C2CCC(NCCC3CCCCC3)c3ccsc32)cc1Cl (stereo not given), the Activity (Cryptococcus neoformans [2]) is reported as “Active”, the inhibition at 2 µg/mL (Cryptococcus neoformans [3]) is reported as 50% and the IC50 (Cryptococcus neoformans [1]) is reported as 1 µg/mL. The inhibition (Cryptococcus neoformans [4]) was “Dde”.

Compound CNC1CC(c2ccc(Cl)c(Cl)c2)c2ccccc21.Cl (stereo not given) has an IC50 (Cryptococcus neoformans [1]) of 16 µg/mL.

Cl.Clc1ccc(C2CCC(NCC3CCCCC3)c3ccsc32)cc1Cl (stereo not given) gave an IC50 (Cryptococcus neoformans [1]) of 2 µg/mL.

Cl.Clc1ccc(C2CCC(NC3CC3)c3ccsc32)cc1Cl (stereo not given) gave an IC50 (Cryptococcus neoformans [1]) of 16 µg/mL.

With Cl.Clc1ccc(C2CCC(NCCC3CCCCC3)c3ccsc32)c(Cl)c1 (stereo not given) the IC50 (Cryptococcus neoformans [1]) was 4 µg/mL.

Cl.Clc1ccc(C2CCC(NC3CCCC3)c3ccsc32)cc1Cl (stereo not given) showed an IC50 (Cryptococcus neoformans [1]) of 8 µg/mL.

With Cl.Clc1ccc(C2CCC(NCc3ncccn3)c3ccsc32)cc1Cl (stereo not given) the IC50 (Cryptococcus neoformans [1]) was 32 µg/mL.

With CC(C)(C)CNC1CCC(c2ccc(Cl)c(Cl)c2)c2sccc21.Cl (stereo not given) the IC50 (Cryptococcus neoformans [1]) was 4 µg/mL.

Compound Cl.Clc1ccc(C2CCC(NCCCC3CCCCC3)c3ccsc32)cc1Cl (stereo not given) has an IC50 (Cryptococcus neoformans [1]) of 2 µg/mL.

Cl.Clc1ccc(C2CCC(NCc3ccncc3)c3ccsc32)cc1Cl (stereo not given) showed an IC50 (Cryptococcus neoformans [1]) of 16 µg/mL.

In the case of Cl.Clc1ccc(C2CCC(NCCC3CCOCC3)c3ccsc32)cc1Cl (stereo not given), the Activity (Cryptococcus neoformans [5]) is reported as 100%, the Activity (Cryptococcus neoformans [6]) is reported as “Active” and the MFC (Cryptococcus neoformans [7]) is reported as 8 µg/mL. It also gave an inhibition at 2 µg/mL (Cryptococcus neoformans [3]) of 50%, an IC50 ([Candida] auris [8]) of 8 µg/mL and an IC50 (Cryptococcus neoformans [1]) of 0.5 µg/mL. For the same compound, the IC50 (Candida albicans [9]) was 32 µg/mL, the IC50 (Candida albicans [10]) was 32 µg/mL and the IC50 (Candida albicans [11]) was 32 µg/mL. For the same compound, the IC50 (Candida tropicalis) was 32 µg/mL, the IC50 (Nakaseomyces glabratus [12]) was 32 µg/mL and the IC50 (Nakaseomyces glabratus [13]) was 8 µg/mL. It also gave an IC50 (Pichia kudriavzevii) of 8 µg/mL, an IC50 ([Candida] auris [14]) of 16 µg/mL and an IC50 ([Candida] auris [15]) of 8 µg/mL. The IC50 (Aspergillus fumigatus [16]) was 32 µg/mL, the IC50 (Aspergillus fumigatus [17]) was 32 µg/mL and the half-life [18] was 40.1 min. For the same compound, the CLH [19] was 136 µL/min/mg, the IC50 [20] was 20.2 µM and the MST [21] was 14 days. For the same compound, the Activity (Cryptococcus neoformans [22]) was “Active”, the Activity (Cryptococcus neoformans [23]) was “Dde” and the Activity (Cryptococcus neoformans [24]) was “Active”. For the same compound, the Activity (Cryptococcus neoformans [25]) was “Active”, the Activity (Cryptococcus neoformans [26]) was “Active” and the Activity (Cryptococcus neoformans [27]) was “Dde”. The Activity (Cryptococcus neoformans [28]) was “Active”, the Activity (Cryptococcus neoformans [29]) was “Active” and the Activity (Candida albicans [30]) was “Active”. For the same compound, the Activity (Candida albicans [31]) was “Active”, the Activity (Cryptococcus neoformans [32]) was “Active” and the Activity (Cryptococcus neoformans [33]) was “Active”. For the same compound, the Activity (Cryptococcus neoformans [34]) was “Active”, the Activity (Cryptococcus neoformans [35]) was “Active” and the Activity (Cryptococcus neoformans [36]) was “Active”. The Activity (Cryptococcus neoformans [37]) was “Active”, the Activity (Cryptococcus neoformans [38]) was “Active” and the Activity (Cryptococcus neoformans [39]) was “Dde”. For the same compound, the Activity (Cryptococcus neoformans [40]) was “Dde”, the Activity (Candida albicans [41]) was “Active” and the Activity (Candida albicans [42]) was “Active”. The inhibition (Cryptococcus neoformans [4]) was “Dde”, the MIC50 [43] was 0.62 µg/mL and the Ratio (Cryptococcus) was 7.47.

CN(C)C1CCC(c2ccc(Cl)c(Cl)c2)c2sccc21.Cl (stereo not given) gave an IC50 (Cryptococcus neoformans [1]) of 32 µg/mL.
